Experimental data from ChEMBL document CHEMBL1152006, “Pharmacological profile and chemical synthesis of SR 48968, a non-peptide antagonist of the neurokinin A (NK2) receptor” (Bioorg Med Chem Lett, 1993).

How the values were obtained:
Cavia porcellus [1] = experiment: The compound was evaluated for the inhibition of bronchoconstriction in guinea pig at intraduodenal dose of 0.5 mg/Kg; format: functional; conditions: Lung
Cavia porcellus [2] = experiment: The compound was evaluated for the inhibition of bronchoconstriction in guinea pig at intravenous dose of 0.2 mg/Kg; format: functional; conditions: Lung
Substance-K receptor [3] = target: T1, Substance-K receptor (Rattus norvegicus, UniProt P16610); experiment: Inhibition of [125I]NKA binding to neurokinin NK2 receptor from rat duodenum membranes; format: cell membranes, Membrane
T1 sequence (P16610 whole entry): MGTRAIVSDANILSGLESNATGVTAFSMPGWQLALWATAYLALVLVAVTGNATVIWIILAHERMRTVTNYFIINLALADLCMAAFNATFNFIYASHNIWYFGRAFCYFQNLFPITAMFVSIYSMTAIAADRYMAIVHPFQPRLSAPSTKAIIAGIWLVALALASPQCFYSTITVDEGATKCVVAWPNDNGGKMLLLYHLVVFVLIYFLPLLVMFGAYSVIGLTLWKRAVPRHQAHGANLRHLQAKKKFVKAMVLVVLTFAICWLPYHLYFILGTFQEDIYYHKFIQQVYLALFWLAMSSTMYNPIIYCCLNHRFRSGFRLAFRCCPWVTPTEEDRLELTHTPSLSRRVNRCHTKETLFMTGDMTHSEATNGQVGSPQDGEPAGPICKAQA

Oryctolagus cuniculus = species on record: Oryctolagus cuniculus; experiment: The compound was evaluated for the inhibition of [Nle10]-NKA(4-10)-induced contraction of the rabbit pulmonary artery; format: functional; conditions: read-out: pA2 (converted)
Substance-K receptor [4] = target: T1, Substance-K receptor; experiment: The compound was evaluated for the inhibition of [125I]NKA binding to Tachykinin receptor 2 from rat duodenum membranes; format: cell membranes, Membrane
Cavia porcellus [5] = experiment: The compound was evaluated for its effect on bronchoconstriction induced by [Sar9,Met(O2)11]-SP(5 ug/kg, i.v.) in the guinea pig 15 min after administration; format: functional
Cavia porcellus [6] = experiment: The compound was evaluated for its effect on bronchoconstriction induced by [Sar9,Met(O2)11]-SP(5 ug/kg, i.v.) in the guinea pig 60 min after administration; format: functional
Cavia porcellus [7] = experiment: The compound was evaluated for its effect on bronchoconstriction induced by acetylcholine(60 ug/kg, i.v.) in the guinea pig 15 min after administration; format: functional
Cavia porcellus [8] = experiment: The compound was evaluated for its effect on bronchoconstriction induced by acetylcholine(60 ug/kg, i.v.) in the guinea pig 60 min after administration; format: functional
Cavia porcellus [9] = experiment: The compound was evaluated for its effect on bronchoconstriction induced by histamine(10 ug/kg, i.v.) in the guinea pig 15 min after administration; format: functional
Cavia porcellus [10] = experiment: The compound was evaluated for its effect on bronchoconstriction induced by histamine(10 ug/kg, i.v.) in the guinea pig 60 min after administration; format: functional
Cavia porcellus [11] = experiment: The compound was evaluated for its effect on bronchoconstriction induced by serotonin(10 ug/kg, i.v.) in the guinea pig 15 min after administration; format: functional
Cavia porcellus [12] = experiment: The compound was evaluated for its effect on bronchoconstriction induced by serotonin(10 ug/kg, i.v.) in the guinea pig 60 min after administration; format: functional
Cavia porcellus [13] = experiment: Tested in vivo to antagonize the NKA-induced bronchoconstriction in guinea pig by intraduodenal route; format: functional; conditions: read-out: ID50 (the source's name)
Cavia porcellus [14] = experiment: Tested in vivo to antagonize the NKA-induced bronchoconstriction in guinea pig intravenously; format: functional; conditions: iv, read-out: ID50 (the source's name)
Substance-K receptor [15] = target: T2, Substance-K receptor (Mesocricetus auratus, UniProt P51144); experiment: The compound was evaluated for the inhibition of [125I]NKA binding to neurokinin NK2 receptor from hamster urinary bladder membranes
T2 sequence (P51144 whole entry): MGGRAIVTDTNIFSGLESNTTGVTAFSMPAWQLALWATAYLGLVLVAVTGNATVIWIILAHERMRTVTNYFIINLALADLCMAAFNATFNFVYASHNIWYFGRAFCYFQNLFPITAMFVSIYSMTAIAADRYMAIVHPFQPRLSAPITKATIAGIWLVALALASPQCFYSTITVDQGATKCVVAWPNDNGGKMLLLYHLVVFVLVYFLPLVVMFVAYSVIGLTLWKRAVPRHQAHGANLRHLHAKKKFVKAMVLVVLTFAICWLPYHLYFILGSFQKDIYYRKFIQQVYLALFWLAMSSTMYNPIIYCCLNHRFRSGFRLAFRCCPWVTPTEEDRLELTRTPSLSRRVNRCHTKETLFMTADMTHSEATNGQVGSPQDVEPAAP

SMILES	inhibition in vivo at 0.5 mg/kg (Cavia porcellus [1]) [%]	inhibition in vivo at 0.2 mg/kg (Cavia porcellus [2]) [%]	Ki (Substance-K receptor [3]) [nM]	Kb (Oryctolagus cuniculus) [nM]	also measured
CCN(CC(CCN1CCC(OC(C)=O)(c2ccccc2)CC1)c1ccc(Cl)c(Cl)c1)C(=O)c1cccs1 (stereo not drawn)	34	97	0.3	0.447	
CN(CC(CCN1CCC(CO)(c2ccccc2)CC1)c1ccc(Cl)c(Cl)c1)C(=O)c1ccccc1 (stereo not drawn)			50		
CN(CC(CCN1CCC(O)(c2ccccc2)CC1)c1ccc(Cl)c(Cl)c1)C(=O)c1ccccc1 (stereo not drawn)		93	1	0.182	
CN(CC(CCN1CCC(O)(c2ccccc2)CC1)c1ccc(Cl)c(Cl)c1)C(=O)c1ccsc1 (stereo not drawn)		77	1	0.229	
CC(=O)NCC1(c2ccccc2)CCN(CCC(CN(C)C(=O)c2ccccc2)c2ccc(Cl)c(Cl)c2)CC1 (stereo not drawn)			23		
CN(CC(CCN1CCC(c2ccccc2)CC1)c1ccc(Cl)c(Cl)c1)C(=O)c1ccccc1 (stereo not drawn)			> 100		
CN(CC(CCN1CCC(O)(c2ccccc2)CC1)c1ccc(Cl)c(Cl)c1)C(=O)c1cccc2ccccc12 (stereo not drawn)		0	1.5	2.34	
CC(=O)OC1(c2ccccc2)CCN(CCC(CN(C)C(=O)c2ccccc2)c2ccc(Cl)c(Cl)c2)CC1 (stereo not drawn)	36	98	0.3		
CCOC1(c2ccccc2)CCN(CCC(CN(C)C(=O)c2ccccc2)c2ccc(Cl)c(Cl)c2)CC1 (stereo not drawn)		40	0.9	0.17	
CC(=O)NC1(c2ccccc2)CCN(CCC(CNC(=O)c2ccccc2)c2ccc(Cl)c(Cl)c2)CC1 (stereo not drawn)			> 100		
CC(=O)NC1(c2ccccc2)CCN(CC[C@H](CN(C)C(=O)c2ccccc2)c2ccc(Cl)c(Cl)c2)CC1 [SAREDUTANT]					Ki (Substance-K receptor [4]): 945 nM
CC(=O)NC1(c2ccccc2)CCN(CCC(CN(C)C(=O)c2ccccc2)c2ccc(Cl)c(Cl)c2)CC1 (single isomer, unassigned) [SAREDUTANT]	100	100	0.5	0.0331	Volume of air (Cavia porcellus [5]): 4.4 mL; Volume of air (Cavia porcellus [6]): 4.2 mL; Volume of air (Cavia porcellus [7]): 2.8 mL; Volume of air (Cavia porcellus [8]): 3.2 mL; Volume of air (Cavia porcellus [9]): 3.2 mL; Volume of air (Cavia porcellus [10]): 3.9 mL; Volume of air (Cavia porcellus [11]): 4.5 mL; Volume of air (Cavia porcellus [12]): 4.7 mL; ED50 (Cavia porcellus [13]): 0.35 mg/kg; ED50 (Cavia porcellus [14]): 0.037 mg/kg; Ki (Substance-K receptor [15]): 1.2 nM
CN(CC(CCN1CCC(O)(c2ccccc2)CC1)c1ccc(Cl)c(Cl)c1)C(=O)c1cccs1 (stereo not drawn)	73	93	1.4	0.0676	
